Values belong to the compound of their own block, whether it stands above or below them. Starred links: 1 amine or outer side, 2 acyl side, 3 side chain; linkers in the order of their positions; H or OH if unused. Non-standard residues stand in square brackets, D forms with d. Residues, ends and D or L forms follow the SMILES beside them. X12 = C[C@@H](O)[C@H](N[*:1])C(=S)N[C@@H](Cc1ccccc1)C(=O)[*:2]; X7 = C[C@@H](O)[C@H](NC(=S)[C@H](CCCCN)N[*:1])C(=O)[*:2]; X2 = CC(C)C[C@H](NC(=S)[C@@H](CC(C)C)N[*:1])C(=O)[*:2]
Legend:
[1] = in vitro; settings: both, human, plasma
Method: Blood was freshly drawn from three healthy adults, two male and one person of 26–28 year old. […] The plasma was separated by centrifugation. […] For checking metabolic stability, the required volume of plasma was pre-incubated at 37 °C prior to the experiment for 2 min, followed by spiking with the peptides. At different time points, plasma was aliquoted. The supernatant was separated and used for RP-HPLC quantification. Rapid Equilibrium Dialysis (RED) assay was performed to assess the plasma protein binding of the peptides following the supplier’s protocol.

[2] = PAMPA passive permeability; type: in vitro ADME;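 also: passive permeability across an artificial membrane in 96-well pre-coated PAMPA plates, which lack transporters and efflux systems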
Method: Encouraged by this, the passive permeability of the analogs was evaluated using an artificial membrane (PAMPA), which measures permeability of compounds in the absence of transporters and efflux systems[32].
96-well BD Corning® pre-coated PAMPA plates were used following the supplier’s protocol, details in Supplementary Information.

[3] = physchem; settings: pH 7.4
[4] = in vitro; settings: pig, simulated intestinal fluid
Method: (§1) We next assessed the stability of the macrocyclic peptides in Simulated Intestinal Fluid (SIF)[42], comprising of pancreatin, which is a mixture of several proteases produced by the exocrine cells of the porcine pancreas.
(§2) A stability assessment of the peptides was done in simulated gastric (SGF) and intestinal (SIF) fluids and human liver microsomes. The degradation kinetics of the aliquoted samples at desired time points were analyzed through RP-HPLC.

[5] = type: physicochemical
Excerpt: Since reduced solvation of S also contributes to the lipophilicity of the thioamidated peptides, we sought to estimate the global desolvation of the macrocyclic peptides, which is affected by solvation of both N(H) and C(S). […] Thus, we evaluated the desolvation potential of the cyclic peptides by determining the distribution coefficients in heptane-ethylene glycol (logDh/e), a solvent system that provides an experimental estimate of desolvation or hydrogen bond potential[38].

[6] = in vitro; settings: both, human, plasma; remark: listed apart in the source
[7] = target: T1, SSTR5 (Homo sapiens, UniProt P35346); experiment: GloSensor assay, inhibition of forskolin-induced cAMP production; type: cell-based
T1 construct: expressed in transfected cells; host or cells: HEK-293T (CRL-3216)
T1 sequence (P35346 whole entry): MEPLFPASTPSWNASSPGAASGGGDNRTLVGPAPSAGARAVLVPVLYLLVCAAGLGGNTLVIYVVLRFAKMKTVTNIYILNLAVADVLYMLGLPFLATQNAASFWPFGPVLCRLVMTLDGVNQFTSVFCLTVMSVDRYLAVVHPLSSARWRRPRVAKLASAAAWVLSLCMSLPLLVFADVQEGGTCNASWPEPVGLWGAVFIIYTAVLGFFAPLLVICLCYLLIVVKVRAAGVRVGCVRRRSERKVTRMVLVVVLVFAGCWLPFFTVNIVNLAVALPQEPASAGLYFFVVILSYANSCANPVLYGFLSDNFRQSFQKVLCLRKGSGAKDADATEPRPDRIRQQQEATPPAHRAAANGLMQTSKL
Method: HEK-293T cells (CRL-3216 from ATCC, procured from NCCS, Pune) were co-transfected with human somatostatin receptor subtypes 2 & 5, plasmid cDNA, and cAMP biosensor (pGloSensorTM-22F plasmid; Promega Corp.) using PEImax. Ligand incubation was followed by the addition and incubation of forskolin (FSK) to the plate. Dose-dependent inhibition of forskolin-induced cAMP production by the peptide ligands was measured using a luminescence plate reader. An elaborate description of the assay setup has been provided in Supplementary Information.

[8] = target: T2, SSTR2 (Homo sapiens, UniProt P30874); experiment: as above; type: cell-based
T2 construct: expressed in transfected cells; host or cells: HEK-293T (CRL-3216)
T2 sequence (P30874 whole entry): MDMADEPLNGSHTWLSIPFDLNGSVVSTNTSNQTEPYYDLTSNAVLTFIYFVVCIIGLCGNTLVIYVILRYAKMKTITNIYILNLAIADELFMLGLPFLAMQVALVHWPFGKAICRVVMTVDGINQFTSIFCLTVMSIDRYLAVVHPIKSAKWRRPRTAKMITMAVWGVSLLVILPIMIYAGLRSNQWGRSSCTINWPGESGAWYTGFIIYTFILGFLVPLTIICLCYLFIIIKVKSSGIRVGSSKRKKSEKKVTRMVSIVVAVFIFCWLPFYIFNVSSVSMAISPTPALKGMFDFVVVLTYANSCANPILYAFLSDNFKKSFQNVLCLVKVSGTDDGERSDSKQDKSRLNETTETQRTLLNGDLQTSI

[9] = Retention in hydrophobic C18 column by HPLC; settings: Supplementary Fig 3d, logD7.4 vs tR
[10] = target: pepsin (Sus scrofa, UniProt P00791); experiment: in vitro; settings: simulated gastric fluid, pH 1.2
pepsin, sequence (P00791 60-385): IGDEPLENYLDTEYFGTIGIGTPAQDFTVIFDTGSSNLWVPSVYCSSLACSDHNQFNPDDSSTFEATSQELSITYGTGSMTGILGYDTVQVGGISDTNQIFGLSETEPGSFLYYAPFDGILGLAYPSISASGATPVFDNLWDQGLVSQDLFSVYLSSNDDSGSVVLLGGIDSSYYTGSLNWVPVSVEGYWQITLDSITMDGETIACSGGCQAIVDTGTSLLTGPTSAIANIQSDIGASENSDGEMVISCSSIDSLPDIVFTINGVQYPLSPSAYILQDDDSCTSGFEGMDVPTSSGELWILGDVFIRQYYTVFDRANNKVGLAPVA
Method: as §2

[11] = tested on: human liver microsomes
Method: as §2

[12] = in vivo; settings: male, Wistar, rat
Method: (§3) All animals were housed individually in the animal facility at Anthem Biosciences Pvt. Ltd and were acclimatized for 3 days. All animals were fasted overnight before dosing, whereas access to water was provided ad libitum. Peptides were administered orally and via s.c. route and blood samples were collected at different time points through a jugular vein catheter.

[13] = in vitro; settings: human, microsomes
Method: as §2

[14] = tested on: Caco-2 cells; experiment: in vitro; type: in vitro ADME, human; settings: Caco-2
Method: (§4) The Caco-2 cell (HTB-37^TM from ATCC, procured from NCCS, Pune) monolayer was washed and pre-incubated at 37 °C and 5% CO2 for 30 min with HBSS-HEPES buffer containing 1% DMSO prior to experimentation. The assay was performed 21 days post-seeding of cells. TEER values were measured before starting and after the completion of the assay. Acceptor and donor well concentrations of the peptides and controls were assessed through LC-MS/MS.

[15] = in vitro; type: in vitro ADME, human
Method: as §4

[16] = HDX of amide protons by NMR in DMSO-d6:D2O (8:2); settings: HDX by NMR, 20% D2O in DMSO-d6
Method: (§5) As hydrogen bonding and solvation of NH groups play an important role in the permeability of macrocycles, we determined the solvent accessibility of individual amide protons in 10 and 10a–10f by hydrogen-deuterium exchange (HDX) through NMR spectroscopy (Figs. 2a–c).
(§6) Spectra were recorded on a Bruker AV 500 MHz spectrometer at 25 °C.

[17] = HDX of amide protons by NMR in CDCl3:CD3OD (8:2)
Method: as §5, §6

[18] = type: physicochemical; remark: listed apart in the source
[19] = rat, in vivo, po, 10 mg/kg
Method: as §3

[20] = tested on: growth hormone (GH) release; experiment: In vivo inhibition of growth hormone release (sandwich ELISA); parameters: species or system rats
Method: In vivo inhibition of GH. Finally, we estimated the in vivo efficacy of 13 and the thioamidated analogs 13b, 13d, and 13e in suppressing the release of growth hormone (GH) post subcutaneous injection at 250 μg/kg dosage (Fig. 7e). 13a was also included as a negative control to assess its effect on GH release. The rats were bled from their orbital sinus, and the plasma GH levels were evaluated through sandwich ELISA. […] This correlates well with the high plasma concentration of 13 at the initial time points and a rapid drop within 2 h of s.c. administration (Fig. 7c). […] In contrast, the inhibitory effect lasts longer in 13b, 13d, and 13e showing a significant reduction in plasma GH levels within 24–48 h (Fig. 7h). […] The rapid drop in plasma concentration of 13 is responsible for its least in vivo efficacy.
Animal housing and acclimatization were done at Central Animal Facility, IISc Bangalore, as mentioned in the previous section, following protocols from the IEAC and CPCSEA. […] Samples were processed as discussed in Supplementary Information, and sandwich ELISA was performed to measure the growth hormone level in blood plasma. For acute toxicity, after peptide injection (s.c.), blood samples were collected on the 14th day for liver and kidney function tests.

[21] = tested on: pancreatin
Method: as §1, §2

[22] = in vivo; settings: male, rat, sc
Method: Subsequently, we selected 13a, 13b, 13d, and 13e for assessing their plasma exposure post single dose subcutaneous injection into male Sprague Dawley rats.
as §3

[23] = 20% CD3OD in CDCl3, % remaining after 24 hours
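For Papp A-B avg (second block) in this document: Caco-2 monolayers used 21 days after seeding in HBSS-HEPES buffer with 1% DMSO, donor and acceptor levels quantified by LC-MS/MS, TEER checked before and after.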
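For Papp A-B set 1 (second block) in this document: Caco-2 monolayers used 21 days after seeding in HBSS-HEPES buffer with 1% DMSO, donor and acceptor levels quantified by LC-MS/MS, TEER checked before and after.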
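For Papp A-B set 2 (second block) in this document: Caco-2 monolayers used 21 days after seeding in HBSS-HEPES buffer with 1% DMSO, donor and acceptor levels quantified by LC-MS/MS, TEER checked before and after.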
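For Papp B-A avg (second block) in this document: Caco-2 monolayers used 21 days after seeding in HBSS-HEPES buffer with 1% DMSO, donor and acceptor levels quantified by LC-MS/MS, TEER checked before and after.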

- half-life [1]: 33 h
- Papp ([2]; Pe): 0.96 ×10⁻⁶ cm/s
- logD [3]: -1.04
- half-life [4]: 2.5 h
- logD heptane ethylene glycol [5]: -1.18
- fraction unbound [6]: 0.21
- binding against SSTR5 (in words) ([7]; HEK293T cells expressing SSTR5, cAMP GloSensor): complete loss in binding
- binding against SSTR2 (in words) ([8]; HEK293T cells expressing SSTR2, cAMP GloSensor): complete loss in binding
Compound: C[C@@H](O)[C@@H]1NC(=O)[C@H](CCCCN)NC(=O)[C@@H](Cc2c[nH]c3ccccc23)NC(=O)[C@H](Cc2ccccc2)NC(=O)[C@@H]2CCCN2C(=O)[C@H](Cc2ccccc2)NC1=S [13c] (cyclo(F[dW]K[X12]P))

- tR [9]: 10.8 min
- half-life [10]: 0.7 h
- remaining at 5 min [10]: 83%
- remaining at 10 min [10]: 74%
- remaining at 20 min [10]: 63%
- remaining at 0.5 h [10]: 56%
- remaining at 1 h [10]: 42%
- remaining at 2 h [10]: 34%
- remaining at 4 h [10]: 31%
- remaining at 8 h [10]: 19%
- remaining at 12 h [10]: 11%
- remaining at 24 h [10]: 7%
- half-life [1]: 22 h
- remaining at 1 h [1]: 94%
- remaining at 3 h [1]: 84%
- remaining at 5 h [1]: 78%
- remaining at 7 h [1]: 72%
- remaining at 9 h [1]: 66%
- remaining at 12 h [1]: 56%
- remaining at 24 h [1]: 45%
- remaining at 36 h [1]: 33%
- remaining at 48 h [1]: 23%
- remaining at 60 h [1]: 22%
- remaining at 72 h [1]: 21%
- Pe set1 [2]: 8.08 ×10⁻⁶ cm/s
- Pe set2 [2]: 12.5 ×10⁻⁶ cm/s
- Pe set3 [2]: 11.81 ×10⁻⁶ cm/s
- Papp ([2]; Pe Avg): 10.8 ×10⁻⁶ cm/s
- Half lives [11]: 46.9
- logD [3]: 1.21
- AUC(0-t) ([12]; iv): 146 ng·h/mL
- Cmax ([12]; iv): 48.1 ng/mL
- MRT ([12]; iv): 2.8 h
- Vd ([12]; iv): 28.6 L/kg
- clearance ([12]; iv): 91.1 mL/min/kg
- bioavailability ([12]; po): 1.8%
- AUC(0-t) ([12]; po, 10 mg/kg): 26.9 ng·h/mL
- Cmax ([12]; po, 10 mg/kg): 15 ng/mL
- MRT ([12]; po, 10 mg/kg): 2 h
- level at 3 h ([12]; po, 10 mg/kg): 3 ng/mL
- half-life [4]: 2.45 h
- remaining at 10 min [4]: 78.4%
- remaining at 0.5 h [4]: 66%
- remaining at 1 h [4]: 55.9%
- remaining at 2 h [4]: 49.2%
- remaining at 4 h [4]: 34%
- remaining at 8 h [4]: 26.3%
- remaining at 12 h [4]: 18.8%
- remaining at 24 h [4]: 11%
- logD heptane ethylene glycol [5]: 0.97
- microsomal CLint [13]: 29.5 µL/min/mg
- remaining at 5 min [13]: 75%
- remaining at 10 min [13]: 65%
- remaining at 20 min [13]: 64%
- remaining at 0.5 h [13]: 58%
- remaining at 0.75 h [13]: 52%
- remaining at 1 h [13]: 44%
- fraction unbound [6]: 0.28
- Papp A-B avg (second block) [14]: 3.25 ×10⁻⁶ cm/s
- Papp A-B set 1 (second block) [14]: 3.14 ×10⁻⁶ cm/s
- Papp A-B set 2 (second block) [14]: 3.36 ×10⁻⁶ cm/s
- Papp B-A avg (second block) [14]: 75.4 ×10⁻⁶ cm/s
- Papp B-A set 1 (second block) [14]: 77.4 ×10⁻⁶ cm/s
- Papp B-A set 2 (second block) [14]: 73.3 ×10⁻⁶ cm/s
- Papp A→B ([15]; Caco-2, Papp A-B + Elacridar avg): 13 ×10⁻⁶ cm/s
- Papp A→B ([15]; Caco-2, Papp A-B avg): 3.25 ×10⁻⁶ cm/s
- Papp B→A ([15]; Caco-2, Papp B-A + Elacridar avg): 16.9 ×10⁻⁶ cm/s
- Papp B→A ([15]; Caco-2, Papp B-A avg): 75.4 ×10⁻⁶ cm/s
- Half-life of D-Leu1 amide proton (HDX) [16]: 2.83 h
- Half-life of Leu2 amide proton (HDX) [16]: 1.83 h
- Half-life of Leu3 amide proton (HDX) [16]: 12 h
- Half-life of Leu6 amide proton (HDX) [16]: 13.3 h
- Half-life of Tyr5 amide proton (HDX) [16]: 0.838 h
- Half-life of D-Leu1 amide proton (HDX) ([17]; 20% CD3OD in CDCl3): 19.25 h
- Half-life of Leu2 amide proton (HDX) ([17]; 20% CD3OD in CDCl3): 0.333 h
- Half-life of Leu3 amide proton (HDX) ([17]; 20% CD3OD in CDCl3): > 24 h
- Half-life of Leu6 amide proton (HDX) ([17]; 20% CD3OD in CDCl3): > 24 h
- Half-life of Tyr5 amide proton (HDX) ([17]; 20% CD3OD in CDCl3): > 24 h
- % intact NH, Leu3 [17, 23]: 80%
- % intact NH, Leu6 [17, 23]: 89%
- % intact NH, Tyr5 [17, 23]: 80%
- % solubility [18]: 58%
- AUClast p.o [19]: 26.9 ng·h/mL
- time over which the peptide is detectable in plasma [19]: ≥ 8 h
Compound: CC(C)C[C@@H]1NC(=O)[C@H](Cc2ccc(O)cc2)NC(=O)[C@H]2CCCN2C(=O)[C@H](CC(C)C)NC(=O)[C@H](CC(C)C)NC(=S)[C@@H](CC(C)C)NC1=O [10a] (cyclo(L[dP]YL[X2]))

- half-life [1]: 32 h
- Papp ([2]; Pe): 2.92 ×10⁻⁶ cm/s
- t1/2 in SIF [21]: over 72 h
- logD [3]: -0.64
- logD heptane ethylene glycol [5]: -0.83
- fraction unbound [6]: 0.14
- IC50 [7]: 228 ± 41.9 nM
- level at 0.5 h ([22]; Sprague Dawley): 72 ng/mL
- level at 1 h ([22]; Sprague Dawley): 44 ng/mL
- half-life ([22]; Sprague-Dawley): 0.6 ± 0.2 h
- IC50 ([8]; read-out: IC50 sstr2): 15.6 ± 4.3 nM
Compound: C[C@@H](O)[C@@H]1NC(=S)[C@H](CCCCN)NC(=O)[C@@H](Cc2c[nH]c3ccccc23)NC(=O)[C@H](Cc2ccccc2)NC(=O)[C@@H]2CCCN2C(=O)[C@H](Cc2ccccc2)NC1=O [13b] (cyclo(FPF[dW][X7]))
- AUC 0_24 ([20]; growth hormone AUC 0-24 h, mean of n = 3): 436 ng·h/mL
- AUC 0_48 ([20]; growth hormone AUC 0-48 h, mean of n = 3): 1134 ng·h/mL
- AUC 24_48 ([20]; growth hormone AUC 24-48 h, mean of n = 3): 668 ng·h/mL
- inhibition of unstimulated GH release ([20]; rats, 250 μg/kg s.c., plasma GH by sandwich ELISA over 48 h): significant inhibition
